From patent US7638554B2, “Flavanoids as chemotherapeutic, chemopreventive, and antiangiogenic agents” (SRI International, priority 2002, dated 2009)
pIC50: −log10 of the molar value. Read-outs that look alike come from different tables or passages of the source.

Key:
[1] = system: prostate cancer cell line LNCaP; test: Growth inhibition, sulforhodamine-based protein determination, LNCaP; format: cell-based; details: Homo sapiens
Procedure: (§1) The novel compound SR 13179 was assayed for its ability to inhibit growth in several cancer cell lines. The cell lines studied included breast cancer cell line MCF-7 (ER+); prostate cancer cell lines LNCaP, PC3, and DU145; lung cancer cell line A427; ovarian cancer cell lines IGROV1, OVCAR-3, OVCAR-4, OVCAR-5, OVCAR-8, and SK-OV-3; and colon cancer cell lines COLO 205, HCC-2998, HCT-116, HCT-15, HT29, KM12, AND SW-620.
(§2) The growth assays for the breast cancer cell lines were conducted according to the method of Example 16. For the other cell lines, each assay was conducted with continuous exposure to the test compound at four log concentrations for six days, using a sulforhodamine-based protein determination to measure growth inhibition.
The procedure of Example 20 was used to evaluate the growth inhibitory effect of various compounds of the invention on LNCaP cells.

[2] = system: prostate cancer cell line DU145; test: Growth inhibition, sulforhodamine-based protein determination, DU145; format: cell-based; details: Homo sapiens, DU-145, 144 h; continuous exposure six days
Procedure: as §1, §2

[3] = system: prostate cancer cell line PC-3; test: Growth inhibition, sulforhodamine-based protein determination, PC-3; format: cell-based; details: 144 h; continuous exposure six days
Procedure: as §1, §2

[4] = system: ovarian cancer cell line OVCAR-3; test: Growth inhibition, sulforhodamine-based protein determination, OVCAR-3; format: cell-based; details: Homo sapiens, OVCAR-3, 144 h; continuous exposure six days
Procedure: as §1, §2

[5] = system: lung cancer cell line A427; test: Growth inhibition, sulforhodamine-based protein determination, A427; format: cell-based; details: Homo sapiens, A-427, 144 h; continuous exposure six days
Procedure: as §1, §2

[6] = system: human umbilical vein endothelial cells (HUVECs); test: Growth inhibition of HUVECs, MTT assay; format: cell-based; details: HUVEC, read-out: concentration to inhibit growth by 50%, HUVECs
Procedure: Angiogenesis depends upon the proliferation of vascular endothelial cells. To determine the potential antiangiogenic activity of SR 13179, the compound's ability to inhibit the proliferation of these cells was assayed. Apoptosis was then investigated as a possible mechanism for the antiproliferative activity.
Human vascular endothelial cells taken from umbilical veins (HUVECs) were obtained from Clonetics Corporation (San Diego, Calif.). Growth inhibition was measured quantitatively using the MTT assay as described by Mosmann et al., cited in the previous example.
The concentration to inhibit growth by 50% was 0.37 μM.

[7] = system: MDA-MB-231 breast cancer cells; test: Boyden-chamber Matrigel invasion/migration assay, MDA-MB-231; format: cell-based, human
Procedure: Cell Culture. MCF-10CA1a cells were cultured in Dulbecco's Modified Eagle Medium (DMEM) supplemented with 5% bovine serum, 2 mM glutamine and 1 mM non-essential amino acids. MDA-MB231 cells were grown in DMEM supplemented with 5% bovine serum. Cells were routinely maintained in a 5% CO2 incubator at 37° C.
General Procedure for Invasion Assay. MCF 10-CA1a or MDA-MB-231 breast cancer cells were treated with 1 or 5 μM of the compound being tested for 8 h. Cells were removed by trypsinizing and tested for their invasiveness by Boyden-chamber invasion assay. In the in vitro invasion/migration assays, a standard Matrigel-based assay, according to the manufacturer's (Becton-Dickinson) protocol, was used. Rehydrated Matrigel and control inserts were added to Falcon TC companion plates containing human fibronectin (30 μg/ml) as chemoattractant. Cellular suspensions (2×10^4 cells/0.5 ml) were added to individual wells of 24-well chambers (containing either control or Matrigel inserts), and the plates incubated (37° C., 5% CO2) in the presence of the compound being tested or vehicle for an additional 16-18 h. Non-invading or non-migrating cells were removed by scraping the top surfaces of the Matrigel and control inserts, respectively. The invading (or migrating) cells (on the bottom surface) were fixed (3.7% formaldehyde) and stained with Accustain (Sigma). The percent invasion was calculated as mean number of invading cells/the mean number of cells migrating through a control membrane×100.
The in vitro invasion through Matrigel was studied for two human breast cancer lines: MCF-10CA1a, a highly metastatic ER^+ line and MDA-MB-231, an ER^− line. […] At this concentration, SR13179 inhibited invasion of MDA-MB-231 by about 30% (and by 70% at 5 μM). To rule out a cytotoxic effect in the inhibition of invasion, a concurrent cytotoxicity assay was carried out and the number of viable cells was determined by MTT assay. There was less than 5% decrease in MDA-MB-231 cell viability at 5 μM concentration of SR13179 at 22 h. In the same experiment, a motility experiment was conducted, showing that cell migration was inhibited by about 20%.

MMP-2 (gelatinase) = test: Zymography of MMP-2 activity in supernatants of MCF-10-CA1a cultures; format: cell-based, human; details: 5 μM, 48 h, serum-free medium
Procedure: Zymography. Zymography as used herein is illustrated by the following general procedure. MCF10CA1a cells were grown in 100 mm in diameter tissue culture plates until 90% confluent. The cells were washed once with serum-free medium and placed in serum-free medium for 2 h prior to drug treatment. The candidate agent was added to the plate and the plate was incubated in the 5% CO2 incubator at 37° C. for 16 h. The medium was collected, concentrated and subjected to zymography. In brief, 10 μl of the sample was electrophoresed in 8% polyacrylamide gel containing 0.1% gelatin in the presence of SDS. After electrophoresis, gel was washed two times, 20 min each, in 2.5% Triton X-100 and incubated overnight at 37° C. in a solution containing 50 mM Tris-HCl, pH 8, 5 mM CaCl2, 10 mM ZnCl2 and 0.02% NaN3. The gel was then stained for 30 min with 0.5% Coomassie Brilliant Blue R-250 prepared in 30% methanol/10% acetic acid solution and destained with several washes with water.
The effect of SR 13179 on the activity of MMP-2 (gelatinase) was studied. MCF-10-CA1a cells were treated with 1, 3, and 5 μM SR 13179 in serum-free medium for 48 h. Untreated cells, grown under the same conditions, were used as control. After treatment, supernatants of the cultures were concentrated and subjected to zymography.

Compound `COc1cc(C2CC(O)c3ccc4ccccc4c3O2)cc(OC)c1OC` (stereo not shown) [SR 13179, 2-(3,4,5-trimethoxyphenyl)-3,4-dihydro-2H-benzo[h]chromen-4-ol] has a pIC50 ([1]; 144 h, continuous exposure six days, read-out: IC50, growth inhibition, LNCaP) of 6.68, a pIC50 ([1]; Table 5, read-out: Growth Inhibition (IC50), LNCaP cells) of 6.68 and a pIC50 [2] of 6.20. It also gave a pIC50 [3] of 6.54, a pIC50 [4] of 6.74 and a pIC50 [5] of 6.29. For the same compound, the pIC50 [6] was 6.43, the “Invasion (%)” value ([7]; 1 μM) was 60% and the “Invasion (%)” value ([7]; 5 μM) was 25%. For the same compound, the inhibition at 1 µM ([7]; Homo sapiens, MDA-MB-231, 1 μM) was roughly 30%, the inhibition at 5 µM ([7]; Homo sapiens, MDA-MB-231, 5 μM) was 70% and the “inhibition of cell migration (motility experiment)” value ([7]; same experiment as the cytotoxicity assay) was “about 20%”. For the same compound, the “inhibition of MMP-2 activity” value (MMP-2 (gelatinase)) was greater than 50%.
